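Assay format: 96-well plates, 48-hour exposure. GI50 marks 50% less growth.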 Activity calls are given as the source filed them. Rule as the data show it: active = GI50 up to about 1.1 µM and inactive = higher.
What was measured:
Test in all cases: NCI anticancer screen, dose series, 48 h
M19-MEL = system: M19-MEL
RPMI-8226 = system: RPMI-8226
LOX IMVI = system: LOX IMVI
DLD-1 = system: DLD-1
HT-29 = system: HT-29
HOP-62 = system: HOP-62
ACHN = system: ACHN
M14 = system: M14
LXFL 529 = system: LXFL 529
SNB-19 = system: SNB-19
U-251 = system: U-251
SK-MEL-2 = system: SK-MEL-2
786-0 = system: 786-0
SK-MEL-28 = system: SK-MEL-28
COLO 205 = system: COLO 205
UO-31 = system: UO-31
KM-20L2 = system: KM-20L2
DMS-114 = system: DMS-114
SN12C = system: SN12C
KM12 = system: KM12
SR = system: SR
UACC-62 = system: UACC-62
K562 = system: K562
IGROV-1 = system: IGROV-1
NCI-H23 = system: NCI-H23
TK-10 = system: TK-10
OVCAR-8 = system: OVCAR-8
CAKI-1 = system: CAKI-1
OVCAR-5 = system: OVCAR-5
SK-OV-3 = system: SK-OV-3
HCT-15 = system: HCT-15
SNB-75 = system: SNB-75
HCC 2998 = system: HCC 2998
Malme-3M = system: Malme-3M
NCI-H522 = system: NCI-H522
A549 = system: A549
XF498 = system: XF498
DMS-273 = system: DMS-273
MOLT-4 = system: MOLT-4
SK-MEL-5 = system: SK-MEL-5
SF-268 = system: SF-268
OVCAR-3 = system: OVCAR-3
SW-620 = system: SW-620
CCRF-CEM = system: CCRF-CEM
NCI-H460 = system: NCI-H460
HCT-116 = system: HCT-116
HOP-92 = system: HOP-92
UACC-257 = system: UACC-257
HL-60 = system: HL-60
NCI-H226 = system: NCI-H226
RXF 393 = system: RXF 393
SF-539 = system: SF-539
EKVX = system: EKVX
SNB-78 = system: SNB-78
A498 = system: A498
OVCAR-4 = system: OVCAR-4
SF-295 = system: SF-295

Measured: GI50

Cc1ccc(C(=O)/C=C2\Nc3c(c(=O)oc4ccccc34)N=C2NC23CC4CC(CC(C4)C2)C3)cc1
inactive: M19-MEL > 100 µM | RPMI-8226 > 100 µM | LOX IMVI > 100 µM | DLD-1 89.9 µM | HT-29 > 100 µM | HOP-62 > 100 µM | ACHN > 100 µM | M14 > 100 µM | LXFL 529 > 100 µM | SNB-19 > 100 µM | U-251 > 100 µM | SK-MEL-2 > 100 µM | 786-0 > 100 µM | SK-MEL-28 > 100 µM | COLO 205 > 100 µM | UO-31 > 100 µM | KM-20L2 > 100 µM | DMS-114 > 100 µM | SN12C > 100 µM | KM12 > 100 µM | SR > 100 µM | UACC-62 > 100 µM | K562 > 100 µM | IGROV-1 > 100 µM | NCI-H23 > 100 µM | TK-10 > 100 µM | OVCAR-8 > 100 µM | CAKI-1 > 100 µM | OVCAR-5 > 100 µM | SK-OV-3 > 100 µM | SNB-75 28.6 µM | HCC 2998 > 100 µM | Malme-3M > 100 µM | NCI-H522 > 100 µM | A549 > 100 µM | XF498 > 100 µM | DMS-273 > 100 µM | MOLT-4 > 100 µM | SK-MEL-5 > 100 µM | SF-268 > 100 µM | OVCAR-3 > 100 µM | SW-620 > 100 µM | CCRF-CEM > 100 µM | NCI-H460 > 100 µM | HCT-116 > 100 µM | HOP-92 49.2 µM | UACC-257 > 100 µM | HL-60 > 100 µM | NCI-H226 > 100 µM | RXF 393 > 100 µM | SF-539 > 100 µM | EKVX > 100 µM
> 100 µM: HCT-15

[O-]c1on[n+]2c1c(Nc1ccc(Cl)cc1)nc1ccccc12
inactive: M19-MEL > 100 µM | RPMI-8226 > 100 µM | LOX IMVI > 100 µM | DLD-1 > 100 µM | HT-29 > 100 µM | ACHN > 100 µM | M14 > 100 µM | LXFL 529 > 100 µM | SNB-19 > 100 µM | U-251 > 100 µM | 786-0 > 100 µM | SK-MEL-28 > 100 µM | COLO 205 > 100 µM | UO-31 > 100 µM | SNB-78 > 100 µM | KM-20L2 > 100 µM | DMS-114 > 100 µM | A498 > 100 µM | SN12C > 100 µM | KM12 > 100 µM | SR > 100 µM | UACC-62 > 100 µM | K562 > 100 µM | OVCAR-4 > 100 µM | IGROV-1 > 100 µM | NCI-H23 > 100 µM | TK-10 > 100 µM | OVCAR-8 > 100 µM | OVCAR-5 > 100 µM | SK-OV-3 > 100 µM | SNB-75 85.1 µM | HCC 2998 > 100 µM | NCI-H522 > 100 µM | A549 > 100 µM | XF498 > 100 µM | DMS-273 > 100 µM | MOLT-4 > 100 µM | SK-MEL-5 > 100 µM | SF-268 > 100 µM | OVCAR-3 > 100 µM | SF-295 > 100 µM | SW-620 > 100 µM | CCRF-CEM > 100 µM | NCI-H460 > 100 µM | HCT-116 > 100 µM | HOP-92 > 100 µM | UACC-257 > 100 µM | HL-60 > 100 µM | RXF 393 > 100 µM | SF-539 > 100 µM | EKVX > 100 µM

— ChEMBL document CHEMBL1201862, “PubChem BioAssay data set” (2004)
